Data published in patent US20060183221A1, “Method for neural differentiation of embryonic stem cells using protease passaging techniques” (priority 2003, published 2006).

What was measured:
[1] = test system: Mouse neuroblastoma (F-11) cells; test: Induction of apoptosis in mouse neuroblastoma cells (Hoechst 33258 staining of condensed nuclei); format: cell-based; details: 24 hours
Procedure: Mouse neuroblastoma (F-11) cells were incubated for 24 hours in 0.1, 0.2, 0.5, or 1.0 μM of laurylgallate (Aldrich). Apoptosis was determined by punctate staining of condensed nuclei with Hoechst 33258 (Sigma, […] medium for 30 minutes at room temperature).

[2] = test system: differentiating mouse ES cells (ES-J1); test: Apoptosis (TUNEL staining) in differentiating mouse ES cells incubated with ceramide analogs; format: cell-based; details: 15 hours with 75 μM S16 or S18, or 35 μM C2-ceramide
Procedure: In vitro neural differentiation of mouse ES cells (ES-J1, ES-D3) followed a serum deprivation protocol as described previously (Hancock, et al., 2000, Biochem. Biophys. Res. Commun. 271: 418-421). The differentiation stages are outlined in FIG. 2. Briefly, ES cells were grown on gamma-irradiated feeder fibroblasts for four days in Knockout DMEM/15% Knockout serum replacement, supplemented with ESGRO (LIF; Chemicon; Cat No. ESG1106) at a concentration of […] medium. ES cells were then grown for another four days on gelatin-coated bacterial culture dishes without a fibroblast feeder layer, and were then grown for three days in Knockout DMEM/15% heat-inactivated ES qualified Fetal Bovine Serum, supplemented with 10^3 units LIF per ml of medium. Upon trypsinization, ES cells were transferred to bacterial culture dishes without gelatin, and embryoid body (EB) formation was induced for four days in Knockout DMEM/10% heat-inactivated ES qualified FBS without LIF (EB4 stage). On the fifth day, floating and loosely attached EBs were rinsed off and transferred to tissue culture dishes. The EBs were allowed to attach to the tissue culture dish surface by incubation for another 24 hours in Knockout DMEM with 10% heat-inactivated ES qualified fetal bovine serum. Neural differentiation due to serum deprivation was induced by cultivation of the EBs for three days in DMEM/F12 (50/50), supplemented with 1×N2 (Invitrogen/Life Technologies; Cat No. 17502, dilution of 1: 100) but without serum (EB8 stage). Serum-deprived EBs were then trypsinized, plated on poly-L-ornithine/laminin-coated tissue culture dishes and grown for four days in DMEM/F12 (50/50), supplemented with N2 and 10 ng/ml FGF-2, but without serum. his incubation period is referred to as neuroprogenitor (NP) stage due to commitment of neuroepithelial precursor cells to neuroprogenitor cells. These cells have committed during the EB stages and were expanded during the NP stage. NPs grown for 48 hours upon replating of trypsinized EBs were referred to as the NP2 stage. On the fifth day of NP formation, the medium was changed to Neurobasal (Invitrogen/Life Technologies; Cat No. 21103-049), with 5% heat-inactivated FBS, and the cells were incubated for another seven days. During this time, NPs fully differentiate to glial cells and neurons. Cells cultured for 24 hours or 96 hours upon changing the medium were referred to as the D1 or D4 stage, respectively.
ES cells were cultured and differentiated to the EB4, EB8, NP2, or D4 stage following the protocol as described above. The ceramide analog S18 was dissolved in ethanol at a concentration of 100 mM and then added to the cells at a final concentration of 75 μM in medium. The cells at the EB8 stage were incubated for 48 hours in the presence of the ceramide analog and were then transplanted into mouse brains.
Differentiating ES cells were grown on cover slips and fixed with 4% paraformaldehyde in phosphate-buffered saline (PBS). Fixed cells were permeabilized with 0.5% Triton X-100 in PBS for 5 minutes at room temperature and unspecific binding sites were saturated by incubation with 3% ovalbumin in PBS for 1 hour at 37° C. The cover slips were then incubated with 5 μg/ml primary antibody (anti-ceramide clone 15B4 mouse IgM, Alexis; anti-PAR-4 rabbit IgG, Santa Cruz; anti-PCNA rabbit IgG, Santa Cruz; anti-nestin clone 401 rat IgG, BD Pharmingen) in 0.1% ovalbumin/PBS, followed by incubation with the appropriate fluorescence-labeled secondary antibody (5 μg/ml Alexa 546 conjugated anti-mouse IgG, Molecular Probes; Alexa 488 conjugated anti-rabbit IgG, Molecular Probes, Cy3 conjugated anti-mouse IgM, Jackson) for 2 hours at 37° C. The nuclei were stained by treatment with 2 μg/ml Hoechst 33258 in PBS for 30 minutes at room temperature. Apoptotic nuclei were stained using the fluorescein FragEL TUNEL assay (Oncogene) according to the manufacturer's instructions. […]

[3] = test system: SSEA4 selected HESCs; test: Neural differentiation of SSEA4 selected bulk passaged HESCs as serum free embryoid bodies with or without MEDII and S18, seeded and immunostained; format: cell-based, human
Procedure: Cultures were treated with or without 10 μM S18 from day 13 to day 17. After S18 treatment, serum free embryoid bodies were washed several times and cultured further until day 18. Serum free embryoid bodies were cut into pieces to seed down to polyornithine/laminin coated slides.
In the presence of MEDII, a consistently high proportion of the culture contained TH+ neurons, with the background of non-neural regions that was negative for the neuronal marker βIII-Tubulin typically lower than 10%. It was not determined whether the effect of MEDII induced more efficient neuralization or inhibited the generation of non-neural cell types. […] This proportion was determined by analysis of double staining of neural extensions for βIII-Tubulin and TH (FIG. 18), and overlaying Hoffman images with TH immunofluorescence (FIG. 19). The increase in the proportion of TH+ neurons in MEDII treated differentiations appeared to be due to the overall increase in neuronal differentiation, rather than an effect on the proportion of neurons that were dopaminergic, because the proportions of neurons that were TH+ in differentiations not exposed to MEDII was equally high. Another marker of DA cells, VMAT, was expressed in similarly high proportions of cells within the sfEBM cultures. TH+/VMAT−, TH−/VMAT+ and TH+/VMAT+ cells were observed (FIG. 20), possibly indicating temporal variability in the induction of expression of these markers prior to being co-expressed.

[4] = test system: SSEA4 selected HESCs
Source text: Essentially serum free embryoid bodies were generated from bulk passaged monolayer HESC colonies as described in Example 6, in the presence of the media set out below.

[5] = test system: SSEA4 selected HESCs; details: 4 ng/ml FGF2 and 100 μM proline
Procedure: Essentially serum free embryoid bodies were generated from bulk passaged monolayer HESC colonies as described in Example 6, in the presence of 4 ng/ml FGF2 and 100 μM Proline, or in 4 ng/ml FGF2 with MEDII conditioned medium as a positive control.
Serum free embryoid bodies were cultured in suspension for 17 days, and were cut into pieces and seeded onto polyornithine/laminin coated slides at day 10 or 17. The explants were cultured on slides for 5 days prior to fixation at day 15 or 22, for immunostaining with anti-βIII-Tubulin and anti-Tyrosine Hydroxylase antibodies.

[6] = test system: SSEA4 selected HESCs; test: Differentiation of SSEA4 selected HESCs as serum free embryoid bodies in differing media formulations (cytospin counts, immunostaining); format: cell-based, human; details: L-proline conditions
Procedure: Serum free embryoid bodies were cultured in suspension for 3 weeks. Morphological differences were apparent between the cultures. […] Serum free embryoid bodies were cultured in suspension, and were cut into pieces, seeded onto polyornithine/laminin coated slides at day 21 and fixed at day 25. […] This was indicative that this differentiation protocol utilizes an intrinsic neural differentiation capacity of HESC, rather than exogenous neural inducing factors.
Cytospins of disaggregated serum free embryoid bodies were performed at day 21 to enable the counting of the proportion of βIII-Tubulin or TH positive cells generated in the different media formulations. […]
To count proportions of neurons in serum free embryoid bodies, cytospins were immunostained with anti-βIII-Tubulin (Sigma, #T8660) or mouse anti-TH monoclonal antibodies (PeIFreez Biologicals, #P80101-0), detected with alexa-488 conjugated anti-mouse secondary antibody and nuclei were stained with DAPI. Two color fluorescent images were taken under 10× magnification and merged, and double positive signals were scored as neuronal cell bodies, or TH+ neuronal cell bodies against the total nuclei count. A minimum of three randomly sampled fields and 250 or 100 nuclei for βIII-Tubulin or TH, respectively, were counted for each condition. […]

## CCCCCCCCCCCCOC(=O)c1cc(O)c(O)c(O)c1 [laurylgallate, n-dodecyl ester of 3,4,5-trihydroxybenzoic acid]
[1]; 0.5 μM
  cells undergoing apoptosis: 50%
[1]; 1.0 μM
  cells undergoing apoptosis: 100%

## CCCCCCCCCCCCC/C=C/[C@@H](O)[C@H](CO)NC(C)=O [C2-ceramide, N-acetyl sphingosine, reference compound]
[2]; EB8 stage
  TUNEL stained cells: 45±10%
[2]; NP2 stage
  TUNEL stained cells: 70±10%

## FGF2: fibroblast growth factor 2
[3]; 10 μM S18 day 13 to 17, seeded day 18, fixed day 23
  area of seeded serum free embryoid body containing TH+ neurons: 30-70%
[3]; βIII-Tubulin/TH double staining, seeded day 18, fixed day 23
  proportion of neurons expressing TH: very high proportion

## CCCCCCCCCCCCCCCC(=O)NC(CO)CO [S16, N-(2-hydroxy-1-(hydroxymethyl)ethyl)-palmitoylamide]
[2]; EB8 stage
  TUNEL stained cells: 45±10%
[2]; NP2 stage
  TUNEL stained cells: 70±10%

## O=C(O)[C@@H]1CCCN1 [proline, L-proline]
[4]; 50 μM L-proline
  maintained in a proliferative state after proliferation of neural rosette structures: 34 weeks
  maintained in a proliferative state in suspension culture after initial derivation: more than 7 weeks
[4]; 50 μM Proline condition, around 3 weeks
  appearance of sfEBPs with low cell death and distinct neural rosette structures/folds: noticeably enhanced
[5]
  seeded EB pieces that did not exhibit large networks of βIII-Tubulin+ cells: less than 30%
[5]; day 22
  neurons generated that were dopaminergic (co-expressing βIII-Tubulin and TH): greater than 90%
[6]
  TH+ neurons, of the cells in an embryoid body in suspension: greater than 50%
